Structures can show the parent of a compound that is named as a salt. Where two headings read alike, the source gives them in different places.
Tests used:
[1] = system: sweet corn (Delicious 100); test: Visual growth study, phytotoxicity index, chemicals scattered on the next day after sowing; settings: treated next day after sowing, 26 days after treatment, 0 = no growth inhibition, 100 = full dying, 4-(tert-butyl)benzoic acid 1000 g ai/ha in Examples, 0 in Comparative Examples, herbicide dose per label
Method: (§1) A wettable powder containing 10% of 4-(tert-butyl)benzoic acid was prepared by blending pulverization of 10 parts of 4-(tert-butyl)benzoic acid, 2 parts of a sodium salt of naphthalenesulfonic acid-formalin condensation product, 2 parts of a polyoxyethylene alkyl ether, 30 parts of diatomaceous earth and 56 parts of clay by using a high-speed air-jet pulverizer.
(§2) These containers were each kept standing in a water vat and water supply for pooling was introduced through the hole opening at the bottom of the water vat.
(§3) For comparison, on the other hand, evaluation was made by conducting growth studies by growing sweet corn, wheat, dry-paddy rice, sorghum, soybean, adzuki bean and rapeseed under the same conditions as in the Examples excepting for the omission of scattering of 4-(tert-butyl)benzoic acid.

wheat (Brigadier) [2] = settings: in vivo
Method: as §1, §2, §3

dry-paddy rice (Labell) [3] = test: Visual growth study, phytotoxicity index, chemicals scattered on the next day after sowing; format: in vivo; settings: treated next day after sowing, 26 days after treatment, 0 = no growth inhibition, 100 = full dying, 4-(tert-butyl)benzoic acid 1000 g ai/ha in Examples, 0 in Comparative Examples, herbicide dose per label
Method: as §1, §2, §3

sorghum (Funk's Hybrid) = test: as above; settings: treated next day after sowing, 11 days after treatment, 0 = no growth inhibition, 100 = full dying, 4-(tert-butyl)benzoic acid 1000 g ai/ha in Examples, 0 in Comparative Examples, herbicide dose per label
Method: as §1, §2, §3

soybean (Fukuyutaka) [4] = test: as above
Method: as §1, §2, §3

[5] = system: sweet corn (Delicious 100); test: Visual growth study, phytotoxicity index, chemicals scattered 14 days after sowing; format: in vivo; settings: 1.5 leaves stage, treated 14 days after sowing, 8 days after treatment, 0-100 scale, 4-(tert-butyl)benzoic acid 1000 g ai/ha in Examples, 0 in Comparative Examples, herbicide dose per label
Method: (§4) These containers were each kept standing on a water vat filled with a water pool from which water was supplied through the opening in the bottom. […] After 8 days from the chemical treatment and after 14 days from the chemical treatment, visual growth studies were conducted for sweet corn, sorghum and adzuki bean and for wheat, barley, dry-paddy rice, soybean, rapeseed and beet, respectively and the results are shown in Table 2 and Table 3.

wheat (Brigadier) [6] = test: as above; format: in vivo
Method: as §4

barley (Minori Rokujo) = test: as above; settings: in vivo
Method: as §4

dry-paddy rice (Labell) [7] = test: as above; format: in vivo; settings: 0.8 leaves stage, treated 14 days after sowing, 14 days after treatment, 0-100 scale, 4-(tert-butyl)benzoic acid 1000 g ai/ha in Examples, 0 in Comparative Examples, herbicide dose per label
Method: as §4

soybean (Fukuyutaka) [8] = test: as above; format: in vivo; settings: true leaf extraction stage, treated 14 days after sowing, 14 days after treatment, 0-100 scale, 4-(tert-butyl)benzoic acid 1000 g ai/ha in Examples, 0 in Comparative Examples, herbicide dose per label
Method: as §4

adzuki bean (Dainagon) = test: as above; format: in vivo
Method: as §4

rapeseed = test: as above; format: in vivo
Method: as §4

beet (VIGIL) = test: as above; format: in vivo; settings: true leaf extraction stage, treated 14 days after sowing, 14 days after treatment, 0-100 scale, 4-(tert-butyl)benzoic acid 1000 g ai/ha in Examples, 0 in Comparative Examples, herbicide dose per label
Method: as §4

[9] = wheat, 2 leaves stage, treated 14 days after sowing, 14 days after treatment, 0-100 scale, 4-(tert-butyl)benzoic acid 1000 g ai/ha in Examples, 0 in Comparative Examples, herbicide dose per label

Question: With `COC[C@H](C)N(C(=O)CCl)c1c(C)csc1C` [compound 2, Dimethenamide-P] as the compound, how does the Phytotoxicity index [1] read?
Answer: 33

Question: `CCNc1nc(Cl)nc(NC(C)C)n1` [compound 3, Atrazine] was tested. Which Phytotoxicity index [1] did it give?
Answer: 15

Question: Which Phytotoxicity index (wheat (Brigadier) [2]) does the source give for `Cc1ccn2nc(S(=O)(=O)Nc3c(F)cccc3F)nc2n1` [compound 4, Flumetsulam] here?
Answer: 13

Question: For `CCNc1nc(Cl)nc(NC(C)C)n1` [compound 7, Atrazine], which Phytotoxicity index (dry-paddy rice (Labell) [3]) is on record?
Answer: 35

Question: With `CC(C)C1(C)N=C(c2nc3ccccc3cc2C(=O)O)NC1=O` (stereo not shown) [compound 8, Imazaquin ammonium salt] as the compound, how does the Phytotoxicity index (sorghum (Funk's Hybrid)) read?
Answer: 45

Question: How did the Phytotoxicity index (soybean (Fukuyutaka) [4]; soybean, treated next day after sowing, 26 days after treatment, 0 = no growth inhibition, 100 = full dying, 4-(tert-butyl)benzoic acid 1000 g ai/ha in Examples, 0 in Comparative Examples, herbicide dose per label) turn out when `COC[C@H](C)N(C(=O)CCl)c1c(C)csc1C` [compound 10, Dimethenamide-P] was run?
Answer: 20

Question: For `Cn1nc(C(F)(F)F)c(CS(=O)(=O)C2=NOC(C)(C)C2)c1OC(F)F` [compound 11], which Phytotoxicity index (soybean (Fukuyutaka) [4]; in vivo) is on record?
Answer: 20

Question: With `COc1cc(OC)nc(Oc2cccc(Oc3nc(OC)cc(OC)n3)c2C(=O)O)n1` [compound 14, Bispyribac-sodium] as the compound, how does the Phytotoxicity index [5] read?
Answer: 45

Question: How did the Phytotoxicity index [5] turn out when `COC[C@H](C)N(C(=O)CCl)c1c(C)csc1C` [compound 15, Dimethenamide-P] was run?
Answer: 20

Question: How did the Phytotoxicity index [5] turn out when `CS(=O)(=O)c1ccc(C(=O)C2C(=O)CCCC2=O)c([N+](=O)[O-])c1` [compound 16, Mesotrione] was run?
Answer: 13

Question: `O=C(Nc1ccc(F)cc1F)c1cccnc1Oc1cccc(C(F)(F)F)c1` [compound 17, Diflufenican] was tested. Which Phytotoxicity index [5] did it give?
Answer: 35

Question: `CCOC(=O)[C@@H](C)Oc1ccc(Oc2nc3ccc(Cl)cc3o2)cc1` [compound 18, Fenoxaprop-P-ethyl] was tested. Which Phytotoxicity index (wheat (Brigadier) [6]; [9]) did it give?
Answer: 40

Question: Which Phytotoxicity index (wheat (Brigadier) [6]; [9]) does the source give for `COc1cc(OC)nc(Oc2cccc(Oc3nc(OC)cc(OC)n3)c2C(=O)O)n1` [compound 19, Bispyribac-sodium] here?
Answer: 35

Question: Which Phytotoxicity index (wheat (Brigadier) [6]; in vivo) does the source give for `Cn1nc(C(F)(F)F)c(CS(=O)(=O)C2=NOC(C)(C)C2)c1OC(F)F` [compound 20] here?
Answer: 20

Question: How did the Phytotoxicity index (wheat (Brigadier) [6]; [9]) turn out when `CS(=O)(=O)c1ccc(C(=O)C2C(=O)CCCC2=O)c([N+](=O)[O-])c1` [compound 21, Mesotrione] was run?
Answer: 40

Question: Which Phytotoxicity index (wheat (Brigadier) [6]; [9]) does the source give for `O=C(Nc1ccc(F)cc1F)c1cccnc1Oc1cccc(C(F)(F)F)c1` [compound 22, Diflufenican] here?
Answer: 15

Question: Which Phytotoxicity index (barley (Minori Rokujo)) does the source give for `Cn1nc(C(F)(F)F)c(CS(=O)(=O)C2=NOC(C)(C)C2)c1OC(F)F` [compound 23] here?
Answer: 18

Question: How did the Phytotoxicity index (dry-paddy rice (Labell) [7]) turn out when `COc1cc(OC)nc(Oc2cccc(Oc3nc(OC)cc(OC)n3)c2C(=O)O)n1` [compound 24, Bispyribac-sodium] was run?
Answer: 18

Question: How did the Phytotoxicity index (soybean (Fukuyutaka) [8]) turn out when `COC[C@H](C)N(C(=O)CCl)c1c(C)csc1C` [compound 25, Dimethenamide-P] was run?
Answer: 15

Question: How did the Phytotoxicity index (soybean (Fukuyutaka) [8]) turn out when `O=C(Nc1ccc(F)cc1F)c1cccnc1Oc1cccc(C(F)(F)F)c1` [compound 26, Diflufenican] was run?
Answer: 30

Question: `Cn1nc(C(F)(F)F)c(CS(=O)(=O)C2=NOC(C)(C)C2)c1OC(F)F` [compound 27] was tested. Which Phytotoxicity index (adzuki bean (Dainagon); in vivo) did it give?
Answer: 25

Question: Which Phytotoxicity index (adzuki bean (Dainagon); adzuki bean, true leaf extraction stage, treated 14 days after sowing, 8 days after treatment, 0-100 scale, 4-(tert-butyl)benzoic acid 1000 g ai/ha in Examples, 0 in Comparative Examples, herbicide dose per label) does the source give for `O=C(Nc1ccc(F)cc1F)c1cccnc1Oc1cccc(C(F)(F)F)c1` [compound 28, Diflufenican] here?
Answer: 35

Question: Which Phytotoxicity index (rapeseed; rapeseed, two paired leaves extraction stage, treated 14 days after sowing, 14 days after treatment, 0-100 scale, 4-(tert-butyl)benzoic acid 1000 g ai/ha in Examples, 0 in Comparative Examples, herbicide dose per label) does the source give for `COC[C@H](C)N(C(=O)CCl)c1c(C)csc1C` [compound 29, Dimethenamide-P] here?
Answer: 10

Question: How did the Phytotoxicity index (rapeseed; in vivo) turn out when `Cn1nc(C(F)(F)F)c(CS(=O)(=O)C2=NOC(C)(C)C2)c1OC(F)F` [compound 30] was run?
Answer: 40

Question: How did the Phytotoxicity index (beet (VIGIL)) turn out when `COC[C@H](C)N(C(=O)CCl)c1c(C)csc1C` [compound 31, Dimethenamide-P] was run?
Answer: 35
